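Protocol summary: plate cells (96-well), add compound at 5 concentrations, incubate 48 h, interpolate endpoints linearly. GI50 = concentration required for 50% inhibition of growth. TGI is the concentration that stops growth completely.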
Key:
Assay in all cases: NCI-60 cell line screen, 48 h
786-0 renal = tested on: 786-0 renal
A498 renal = tested on: A498 renal
A549 NSCLC = tested on: A549 NSCLC
ACHN renal = tested on: ACHN renal
BT-549 breast = tested on: BT-549 breast
CAKI-1 renal = tested on: CAKI-1 renal
CCRF-CEM leukemia = tested on: CCRF-CEM leukemia
COLO 205 colon = tested on: COLO 205 colon
DU-145 prostate = tested on: DU-145 prostate
EKVX NSCLC = tested on: EKVX NSCLC
HCC-2998 colon = tested on: HCC-2998 colon
HCT-116 colon = tested on: HCT-116 colon
HCT-15 colon = tested on: HCT-15 colon
HL-60(TB) leukemia = tested on: HL-60(TB) leukemia
HOP-62 NSCLC = tested on: HOP-62 NSCLC
HOP-92 NSCLC = tested on: HOP-92 NSCLC
HS 578T breast = tested on: HS 578T breast
HT29 colon = tested on: HT29 colon
IGROV1 ovarian = tested on: IGROV1 ovarian
K-562 leukemia = tested on: K-562 leukemia
KM12 colon = tested on: KM12 colon
LOX IMVI melanoma = tested on: LOX IMVI melanoma
M14 melanoma = tested on: M14 melanoma
MALME-3M melanoma = tested on: MALME-3M melanoma
MCF7 breast = tested on: MCF7 breast
MDA-MB-231 breast = tested on: MDA-MB-231 breast
MDA-MB-435 = tested on: MDA-MB-435
MOLT-4 leukemia = tested on: MOLT-4 leukemia
NCI-H226 lung = tested on: NCI-H226 lung
NCI-H23 lung = tested on: NCI-H23 lung
NCI-H460 lung = tested on: NCI-H460 lung
NCI-H522 lung = tested on: NCI-H522 lung
NCI/ADR-RES ovarian = tested on: NCI/ADR-RES ovarian
OVCAR-3 ovarian = tested on: OVCAR-3 ovarian
OVCAR-4 ovarian = tested on: OVCAR-4 ovarian
OVCAR-5 ovarian = tested on: OVCAR-5 ovarian
OVCAR-8 ovarian = tested on: OVCAR-8 ovarian
PC-3 prostate = tested on: PC-3 prostate
RPMI-8226 leukemia = tested on: RPMI-8226 leukemia
RXF 393 renal = tested on: RXF 393 renal
SF-268 CNS = tested on: SF-268 CNS
SF-295 CNS = tested on: SF-295 CNS
SF-539 CNS = tested on: SF-539 CNS
SK-MEL-2 melanoma = tested on: SK-MEL-2 melanoma
SK-MEL-28 melanoma = tested on: SK-MEL-28 melanoma
SK-MEL-5 melanoma = tested on: SK-MEL-5 melanoma
SK-OV-3 ovarian = tested on: SK-OV-3 ovarian
SN12C renal = tested on: SN12C renal
SNB-19 CNS = tested on: SNB-19 CNS
SNB-75 CNS = tested on: SNB-75 CNS
SR leukemia = tested on: SR leukemia
SW-620 colon = tested on: SW-620 colon
T-47D breast = tested on: T-47D breast
TK-10 renal = tested on: TK-10 renal
U251 CNS = tested on: U251 CNS
UACC-62 melanoma = tested on: UACC-62 melanoma
UO-31 renal = tested on: UO-31 renal

In the case of `C#CCNC(=O)c1cccc2c1cc(C)n2-c1nc2c(c(NCc3ccccc3)n1)CCCC2`, the GI50 (786-0 renal) is reported as 29.2 nM, the TGI (786-0 renal) is reported as 78.8 nM and the GI50 (A498 renal) is reported as 21.8 nM. For the same compound, the TGI (A498 renal) was 59.1 nM, the GI50 (A549 NSCLC) was 38.1 nM and the TGI (A549 NSCLC) was 124 nM. The GI50 (ACHN renal) was 25.5 nM, the TGI (ACHN renal) was 110 nM and the GI50 (BT-549 breast) was 26.5 nM. The TGI (BT-549 breast) was 64.3 nM, the GI50 (CAKI-1 renal) was 28.9 nM and the TGI (CAKI-1 renal) was 176 nM. It also gave a GI50 (CCRF-CEM leukemia) of 235 nM, a TGI (CCRF-CEM leukemia) of 945 nM and a GI50 (COLO 205 colon) of 19.1 nM. It also gave a TGI (COLO 205 colon) of 38.2 nM, a GI50 (DU-145 prostate) of 29.8 nM and a TGI (DU-145 prostate) of 108 nM. For the same compound, the GI50 (EKVX NSCLC) was 28 nM, the TGI (EKVX NSCLC) was 112 nM and the GI50 (HCC-2998 colon) was 16.4 nM. It also gave a TGI (HCC-2998 colon) of 33.1 nM, a GI50 (HCT-116 colon) of 10.9 nM and a TGI (HCT-116 colon) of 37.8 nM. The GI50 (HCT-15 colon) was 19.7 nM, the TGI (HCT-15 colon) was 47.4 nM and the GI50 (HL-60(TB) leukemia) was 29 nM. For the same compound, the TGI (HL-60(TB) leukemia) was 191 nM, the GI50 (HOP-62 NSCLC) was 30.8 nM and the TGI (HOP-62 NSCLC) was 114 nM. For the same compound, the GI50 (HOP-92 NSCLC) was 23.9 nM, the TGI (HOP-92 NSCLC) was 66.9 nM and the GI50 (HS 578T breast) was 32.1 nM. The TGI (HS 578T breast) was 954 nM, the GI50 (HT29 colon) was 30 nM and the TGI (HT29 colon) was 92.4 nM. The GI50 (IGROV1 ovarian) was 27.6 nM, the TGI (IGROV1 ovarian) was 102 nM and the GI50 (K-562 leukemia) was 17.9 nM. The GI50 (KM12 colon) was 23.1 nM, the TGI (KM12 colon) was 65 nM and the GI50 (LOX IMVI melanoma) was 10.4 nM. The TGI (LOX IMVI melanoma) was 25.6 nM, the GI50 (M14 melanoma) was 19.5 nM and the TGI (M14 melanoma) was 43.9 nM. The GI50 (MALME-3M melanoma) was 3.11 nM, the TGI (MALME-3M melanoma) was 11.4 nM and the GI50 (MCF7 breast) was 15.1 nM. For the same compound, the TGI (MCF7 breast) was 142 nM, the GI50 (MDA-MB-231 breast) was 21.6 nM and the TGI (MDA-MB-231 breast) was 54.6 nM. For the same compound, the GI50 (MDA-MB-435) was 23.5 nM, the TGI (MDA-MB-435) was 65.6 nM and the GI50 (MOLT-4 leukemia) was 22.9 nM. For the same compound, the TGI (MOLT-4 leukemia) was 75 nM, the GI50 (NCI-H226 lung) was 17 nM and the TGI (NCI-H226 lung) was 49.1 nM. It also gave a GI50 (NCI-H23 lung) of 19.5 nM, a TGI (NCI-H23 lung) of 56.3 nM and a GI50 (NCI-H460 lung) of 23.3 nM. It also gave a TGI (NCI-H460 lung) of 72.3 nM, a GI50 (NCI-H522 lung) of 25.1 nM and a TGI (NCI-H522 lung) of 80.8 nM. For the same compound, the GI50 (NCI/ADR-RES ovarian) was 28.1 nM, the TGI (NCI/ADR-RES ovarian) was 101 nM and the GI50 (OVCAR-3 ovarian) was 23.6 nM. It also gave a TGI (OVCAR-3 ovarian) of 57 nM, a GI50 (OVCAR-4 ovarian) of 22 nM and a TGI (OVCAR-4 ovarian) of 70.9 nM. For the same compound, the GI50 (OVCAR-5 ovarian) was 46.1 nM, the TGI (OVCAR-5 ovarian) was 154 nM and the GI50 (OVCAR-8 ovarian) was 31.2 nM. For the same compound, the TGI (OVCAR-8 ovarian) was 363 nM, the GI50 (PC-3 prostate) was 24 nM and the TGI (PC-3 prostate) was 71.7 nM. For the same compound, the GI50 (RPMI-8226 leukemia) was 10.7 nM, the TGI (RPMI-8226 leukemia) was 53.7 nM and the GI50 (RXF 393 renal) was 12.2 nM. It also gave a TGI (RXF 393 renal) of 40.6 nM, a GI50 (SF-268 CNS) of 25.7 nM and a TGI (SF-268 CNS) of 77.1 nM. For the same compound, the GI50 (SF-295 CNS) was 17.5 nM, the TGI (SF-295 CNS) was 41.8 nM and the GI50 (SF-539 CNS) was 24.5 nM. For the same compound, the TGI (SF-539 CNS) was 70 nM, the GI50 (SK-MEL-2 melanoma) was 23 nM and the TGI (SK-MEL-2 melanoma) was 62.7 nM. The GI50 (SK-MEL-28 melanoma) was 35 nM, the TGI (SK-MEL-28 melanoma) was 123 nM and the GI50 (SK-MEL-5 melanoma) was 8.86 nM. The TGI (SK-MEL-5 melanoma) was 23.5 nM, the GI50 (SK-OV-3 ovarian) was 56 nM and the TGI (SK-OV-3 ovarian) was 232 nM. For the same compound, the GI50 (SN12C renal) was 20.4 nM, the TGI (SN12C renal) was 68.9 nM and the GI50 (SNB-19 CNS) was 36.2 nM. It also gave a TGI (SNB-19 CNS) of 126 nM, a GI50 (SNB-75 CNS) of 36.5 nM and a TGI (SNB-75 CNS) of 87.2 nM. It also gave a GI50 (SR leukemia) of 15.6 nM, a TGI (SR leukemia) of 165 nM and a GI50 (SW-620 colon) of 28.9 nM. For the same compound, the TGI (SW-620 colon) was 142 nM, the GI50 (T-47D breast) was 28.3 nM and the TGI (T-47D breast) was 117 nM. It also gave a GI50 (TK-10 renal) of 34.5 nM, a TGI (TK-10 renal) of 111 nM and a GI50 (U251 CNS) of 25.4 nM. The TGI (U251 CNS) was 64.6 nM, the GI50 (UACC-62 melanoma) was 15.8 nM and the TGI (UACC-62 melanoma) was 35.9 nM. For the same compound, the GI50 (UO-31 renal) was 24.2 nM and the TGI (UO-31 renal) was 67.8 nM.

From PubChem BioAssay (NCI)
